Results reported in patent publication US9650395B2, “Antibacterial compounds and methods for use” (PTC Therapeutics, Inc., priority 2011, dated 2017).
In brackets after ≈: the same amount, converted by molar mass.

How the values were obtained:
[1] = tested on: super sensitive Gram-negative Escherichia coli (E. coli) BAS849; assay: Antibacterial activity, microbroth dilution MIC, E. coli BAS849; format: cell-based; settings: Escherichia coli; E. coli BAS849, microbroth dilution; read-out: MIC, BAS849
[2] = tested on: E. coli ELZ4251 (MDR clinical isolate); assay: Antibacterial activity, MIC, MDR E. coli ELZ4251; format: cell-based, Escherichia coli; settings: Escherichia coli, E. coli ELZ4251, MDR clinical isolate; read-out: MIC ELZ4251
[3] = tested on: Neisseria meningitidis (N. meningitidis) 13090; assay: Antibacterial activity, MIC, N. meningitidis 13090; format: cell-based; settings: Neisseria meningitidis; N. meningitidis 13090; read-out: MIC 13090
[4] = tested on: Moraxella catarrhalis (M. catarrhalis) 25238; assay: Antibacterial activity, MIC, M. catarrhalis 25238; format: cell-based; settings: Moraxella catarrhalis, M. catarrhalis 25238; read-out: MIC 25238
[5] = tested on: Haemophilus influenzae (H. influenzae) 49247; assay: Antibacterial activity, MIC, H. influenzae 49247; format: cell-based; settings: Haemophilus influenzae; H. influenzae 49247; read-out: MIC 49247
How it was run: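 A microbroth dilution method gave the minimum inhibitory concentration for each compound against H. influenzae 49247, a Gram-negative bacterium. MIC means the smallest concentration of drug at which no macroscopically visible bacterial growth appears under the conditions of the test.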

[6] = tested on: quinolone resistant E. coli LZ3111; assay: Antibacterial activity, MIC, quinolone resistant E. coli LZ3111; format: cell-based, Escherichia coli; settings: Escherichia coli, read-out: MIC, LZ3111
Source text: (§1) The antibacterial activity from a microbroth dilution method may be presented as the minimum inhibitory concentration (MIC in […]). The MIC value is the lowest concentration of a drug which prevents macroscopically visible bacterial growth under test conditions.
Mutations in these regions are known to confer a high level resistance to the quinolone class of antibiotics.

[7] = tested on: E. coli ELZ4000 (MDR clinical isolate); assay: Antibacterial activity, MIC, MDR E. coli ELZ4000; format: cell-based, Escherichia coli; settings: Escherichia coli; E. coli ELZ4000, MDR clinical isolate; read-out: MIC ELZ4000
[8] = tested on: Pseudomonas aeruginosa (P. aeruginosa) 27853; assay: Antibacterial activity, MIC, P. aeruginosa 27853; format: cell-based; settings: Pseudomonas aeruginosa, P. aeruginosa 27853; read-out: MIC 27853
Source text: as §1
Antibacterial activity of test compounds against the Gram-negative bacterium Pseudomonas aeruginosa (P. aeruginosa) 27853 is shown in Table 5.

[9] = tested on: Gram-positive Staphylococcus aureus (S. aureus) 29213; assay: Antibacterial activity, microbroth dilution MIC, S. aureus 29213; format: cell-based; settings: Staphylococcus aureus; S. aureus 29213, microbroth dilution; read-out: MIC, 29213
[10] = tested on: control Gram-negative E. coli 25922 strain; assay: Antibacterial activity, microbroth dilution MIC, E. coli 25922; format: cell-based, Escherichia coli; settings: Escherichia coli; E. coli 25922, microbroth dilution; read-out: MIC, 25922
[11] = tested on: Acinetobacter baumannii (A. baumannii) BAA747; assay: Antibacterial activity, MIC, A. baumannii BAA747; format: cell-based; settings: Acinetobacter baumannii; A. baumannii BAA747; read-out: MIC BAA747
[12] = tested on: Klebsiella pneumoniae (K. pneumoniae) 35657; assay: Antibacterial activity, MIC, K. pneumoniae 35657; format: cell-based; settings: Klebsiella pneumoniae

SMILES | MIC [1] [µg/mL] | MIC [2] [µg/mL] | MIC [3] [µg/mL] | MIC [4] [µg/mL] | MIC [5] [µg/mL] | MIC [6] [µg/mL] | MIC [7] [µg/mL] | MIC [8] [µg/mL] | MIC [9] [µg/mL] | MIC [10] [µg/mL] | MIC [11] [µg/mL] | MIC [12] [µg/mL]
CCc1c(-c2ccc(N3CCC3)cc2)[nH]c(=O)c(C(=O)O)c1O [Cpd 83, 6-[4-(azetidin-1-yl)phenyl]-5-ethyl-4-hydroxy-2-oxo-1,2-dihydropyridine-3-carboxylic acid] | < 1 | 12.5 to 150 (≈ 39.8 to 477 µM) | < 1 | < 1 | < 1 | 12.5 to 150 (≈ 39.8 to 477 µM) | 12.5 to 150 (≈ 39.8 to 477 µM) | 12.5 to 150 (≈ 39.8 to 477 µM) | 3.5 to 12.5 (≈ 11.1 to 39.8 µM) | 3.5 to 12.5 (≈ 11.1 to 39.8 µM) |  | 
CCc1cc(C(=O)O)c(=O)[nH]c1-c1ccc(N2CCC2)cc1 [Cpd 111, 6-[4-(azetidin-1-yl)phenyl]-5-ethyl-2-oxo-1,2-dihydropyridine-3-carboxylic acid] | < 1 | 12.5 to 150 (≈ 41.9 to 503 µM) | < 1 | < 1 | < 1 | 12.5 to 150 (≈ 41.9 to 503 µM) | 12.5 to 150 (≈ 41.9 to 503 µM) | 12.5 to 150 (≈ 41.9 to 503 µM) | 12.5 to 150 (≈ 41.9 to 503 µM) | 1 to 3.5 (≈ 3.35 to 11.7 µM) |  | 
CCc1cc(C(=O)O)c(=O)[nH]c1-c1ccccc1 [Cpd 75, 5-ethyl-2-oxo-6-phenyl-1,2-dihydropyridine-3-carboxylic acid] | 1 to 3.5 (≈ 4.11 to 14.4 µM) | 12.5 to 150 (≈ 51.4 to 617 µM) |  | 12.5 to 150 (≈ 51.4 to 617 µM) |  | 12.5 to 150 (≈ 51.4 to 617 µM) | 12.5 to 150 (≈ 51.4 to 617 µM) | 12.5 to 150 (≈ 51.4 to 617 µM) | 12.5 to 150 (≈ 51.4 to 617 µM) | 12.5 to 150 (≈ 51.4 to 617 µM) | 12.5 to 150 (≈ 51.4 to 617 µM) | 
CCc1c(-c2ccc(-n3ccnc3)cc2)[nH]c(=O)c(C(=O)O)c1O [Cpd 107, 5-ethyl-4-hydroxy-6-[4-(1H-imidazol-1-yl)phenyl]-2-oxo-1,2-dihydropyridine-3-carboxylic acid] | 1 to 3.5 (≈ 3.07 to 10.8 µM) | 12.5 to 150 (≈ 38.4 to 461 µM) | < 1 | < 1 | < 1 | 12.5 to 150 (≈ 38.4 to 461 µM) | 12.5 to 150 (≈ 38.4 to 461 µM) | 12.5 to 150 (≈ 38.4 to 461 µM) | 12.5 to 150 (≈ 38.4 to 461 µM) | 12.5 to 150 (≈ 38.4 to 461 µM) |  | 
CCc1cc(C(=O)O)c(=O)[nH]c1-c1ccc(N2CCOCC2)c(F)c1 [Cpd 84, 5-ethyl-6-[3-fluoro-4-(morpholin-4-yl)phenyl]-2-oxo-1,2-dihydropyridine-3-carboxylic acid] | 3.5 to 12.5 (≈ 10.1 to 36.1 µM) | 12.5 to 150 (≈ 36.1 to 433 µM) | 1 to 3.5 (≈ 2.89 to 10.1 µM) | 3.5 to 12.5 (≈ 10.1 to 36.1 µM) | < 1 | 12.5 to 150 (≈ 36.1 to 433 µM) | 12.5 to 150 (≈ 36.1 to 433 µM) | 12.5 to 150 (≈ 36.1 to 433 µM) | 12.5 to 150 (≈ 36.1 to 433 µM) | 12.5 to 150 (≈ 36.1 to 433 µM) | 12.5 to 150 (≈ 36.1 to 433 µM) | 
CCc1cc(C(=O)O)c(=O)[nH]c1-c1ccc(Nc2ccccc2)cc1 [Cpd 155, 5-ethyl-2-oxo-6-[4-(phenylamino)phenyl]-1,2-dihydropyridine-3-carboxylic acid] | < 1 | 12.5 to 150 (≈ 37.4 to 449 µM) | < 1 | < 1 | < 1 | 12.5 to 150 (≈ 37.4 to 449 µM) | 12.5 to 150 (≈ 37.4 to 449 µM) | 12.5 to 150 (≈ 37.4 to 449 µM) | 3.5 to 12.5 (≈ 10.5 to 37.4 µM) | 1 to 3.5 (≈ 2.99 to 10.5 µM) |  | 
Cc1cc(C(=O)O)c(=O)[nH]c1-c1ccc(N(C)C)cc1 [Cpd 4, 6-[4-(dimethylamino)phenyl]-5-methyl-2-oxo-1,2-dihydropyridine-3-carboxylic acid] | < 1 | 12.5 to 150 (≈ 45.9 to 551 µM) |  |  |  | 12.5 to 150 (≈ 45.9 to 551 µM) | 12.5 to 150 (≈ 45.9 to 551 µM) | 12.5 to 150 (≈ 45.9 to 551 µM) | 12.5 to 150 (≈ 45.9 to 551 µM) | 12.5 to 150 (≈ 45.9 to 551 µM) |  | 3.5 to 12.5 (≈ 12.9 to 45.9 µM)
CCCc1cc(C(=O)O)c(=O)[nH]c1-c1ccc(N(C)C)cc1 [Cpd 8, 6-[4-(dimethylamino)phenyl]-2-oxo-5-propyl-1,2-dihydropyridine-3-carboxylic acid] | < 1 | 12.5 to 150 (≈ 41.6 to 499 µM) | < 1 | < 1 | < 1 | 12.5 to 150 (≈ 41.6 to 499 µM) | 12.5 to 150 (≈ 41.6 to 499 µM) | 12.5 to 150 (≈ 41.6 to 499 µM) | 12.5 to 150 (≈ 41.6 to 499 µM) | 3.5 to 12.5 (≈ 11.7 to 41.6 µM) |  | 
CCc1cc(C(=O)O)c(=O)[nH]c1-c1ccc(N2CC[C@H](N(C)C)C2)cc1.Cl [Cpd 151, 6-{4-[(3S)-3-(dimethylamino)pyrrolidin-1-yl]phenyl}-5-ethyl-2-oxo-1,2-dihydropyridine-3-carboxylic acid hydrochloride] | < 1 | 12.5 to 150 | < 1 | < 1 | < 1 | 12.5 to 150 | 12.5 to 150 | 12.5 to 150 | 12.5 to 150 | 1 to 3.5 |  | 
